Laboratory results from patent US20070027067A1, “Transition-state Inhibitors of Pin1, alpha-Ketoamide-containing peptidomimetics, and synthesis thereof” (priority 2005, published 2007).

Assay: stability of the product in solution
Format: physicochemical
Details: CDCl3 solution, after 2 days; decomposition product appears to be a cyclic dimer (bis-lactone)
Source text: The compound 7 characterized by MS was obtained in 30% yield. […] The decomposition product appears to be a cyclic dimer (bis-lactone) of 7. [drawing 8] [drawing 9]

O=C(N[C@@H](CO)C(=O)C(=O)N1CCC[C@H]1C(=O)O)OCC1c2ccccc2-c2ccccc21 [Compound 7]
stability in solution (decomposition): totally decomposed
